The subject of series [1] is phosphorylation of CAMKK2, AMPKα and AKT in PSMA-expressing and PSMA-negative (PC3-wt) cells. Nature of the series: Phosphorylation status by isoelectric focusing (NanoPro). Type of series: cell-based, human. The conditions noted are these: for CAMKK2 phosphorylation: 5 μM, 48 h, FIG. 3b. As to the method: (§1) CAMKK2, AMPKα and AKT antibodies were purchased from Cell Signaling (Danvers, Mass.). Cells were grown to confluence and treated with 2-PMPA (5 μM, Tocris) for 48 h. The phosphorylation status of proteins of interest was determined with an isoelectric-focusing instrument (NanoPro1000, Protein Simple, Santa Clara, Calif.), where the samples were prepared and analyzed according to the supplier's guidelines. Determination of site-specific phosphorylation of key proteins was performed with a human phosphor-kinase array (ARY003, R&D Systems, Minneapolis, Minn.), according to the product's instructions.
Phosphorylation state of calcium dependent downstream effectors was analyzed. Since activation of metabotropic glutamate receptors and their associated G proteins can lead to phosphorylation of downstream effectors, phosphorylation levels of key proteins relative to PSMA expression was examined. The NanoPro system from Protein Simple was used, which allowed the determination of global phosphorylation status based on the isoelectric point changes of the target protein. The samples were prepared according to the supplier's guidelines, following lysis of the cells with the NanoPro lysis buffer. All antibodies used were purchased from Cell Signaling, detecting the total protein levels of a target protein. […] (FIG. 3b). […] It has been previously shown that either G protein-activated PI3K or calcium-activated mTORC2 phosphorylating PAK can cause Akt's phosphorylation. All graphs depict mean±s.e.m.

Series [2] relates to LNCaP xenografts. The series is described as follows: In vivo chemotherapy, LNCaP xenografts. Also noted: species or system male athymic, nude mice. The conditions noted are these: 0.4 mM, 100 μL retro-orbital injection daily from implantation. As to the method: Male, athymic, nude mice (Harlan Laboratories, Indianapolis, Ind.) were implanted with LNCaP xenografts (3 million cells in 100 μL Matrigel) on each flank. Immediately post xengraft implantation, the mice were treated daily iv with 2-PMPA (0.4 mM, 100 μL retro-orbital injection). Tumor volume was assessed by measuring the tumor with microcalipers. Combination therapy was performed with male athymic, nude mice with LNCaP xenografts, which were treated daily post tumor detection. Chemotherapy was administered by iv (100 μL retro-orbital injection) with animals receiving either enzalutamide (0.15 mM), 2-PMPA (3 mM) or both compounds (0.15 mM enzalutamide and 3 mM 2-PMPA). Male athymic, nude mice with PC3-PSMA xenografts (3 million cells in 100 μL Matrigel) were treated with either vehicle (DMSO) or a combination of AZD8055 and XL184 (AZD8055 0.4 mM and XL184 8 μM 100 μL retro-orbital injection).
Tumor growth was examined using daily treatment of male athymic, nude mice with LNCaP xenografts on their flanks Each animal's flanks were injected with 3,000,000 cells in 100 μL matrigel, and the animals were immediately treated with 2-PMPA (0.4 mM, 100 μL retro-orbital injection). Tumor volume was assessed by measuring the tumor with microcalipers. […] In a different study, male athymic, nude mice with LNCaP xenografts were treated daily post tumor detection, with either enzalutamide (0.15 mM, 100 μL retro-orbital injection), 2-PMPA (3 mM, 100 μL retro-orbital injection) or both compounds (0.15 mM enzalutamide and 3 mM 2-PMPA, 100 μL retro-orbital injection). […] (FIG. 9c-d).

The test system of series [3] is LNCaP-wt cells. Nature of the series: Human phospho-kinase array (kinome profiling). Particulars: 48 h, 5 μM, FIG. 4a. It counts as cell-based. As to the method: as §1
Considering that PSMA inhibition affected the phosphorylation of some key kinases, a human kinome-profiling array from R&D Systems was utilized to obtain a wider view of other kinases being regulated by this protein. LNCaP-wt cells were grown in the presence of a PSMA inhibitor (48 h, 5 μM) and PC3-PSMA cells were grown under puromycin-induced selection. Control cells included LNCaP-wt and PC3-wt cells grown for 48 h in complete RPMI media. The cells were lysed and processed according to the array's protocol, and the array was performed according to its supplier's guideline. Imaging of the array's membranes was performed after film exposure in the presence of a chemiluniescent substrate and HRP-conjugated detecting antibodies, processed in a dark room.

Series [4] concerns LNCaP, LNCaP-KD, PC3-PSMA and PC3-wt cells. Nature of the series: In vitro chemotherapy, cell viability (Alamar blue). As to the method:
Cells were seeded in a 96-well format (2,500 cells per well), and grown for 48 h. They were then treated with the following drugs at a final concentration of 200 nM: Doxorubicin, Taxol, AZD6244, BEZ235, Lapatinib, and Velcade (all purchased from Selleck Chemicals, Houston, Tex.). For combination therapy, cells were treated with 2-PMPA (5 μM final concentration). After overnight incubation in the presence of the drugs, cell viability was determined with the Alamar blue method according to the supplier's guidelines (Life Technologies, Carlsbad, Calif.)
Given that PSMA affects the phosphorylation status of multiple targets, it was investigated whether inhibition of PSMA can counteract resistance to various chemotherapeutics used in the clinic or under clinical trials. LNCaP and PCS3-PSMA cells were seeded at a density of 2,500 cells per well in a 96-well format, and after 48 hours growth the cells were treated with the drugs (Doxorubicin (Adriamycin; DNA intercalator), Taxol (Paclitaxel; microtubule stabilizer), AZD6244 (Selumetinib; MEK1 & ERK1/2 inhibitor), BEZ235 (Dactolisib; PI3K & mTOR inhibitor), Lapatinib (EGFR and ErbB2 inhibitor), or Velcade (Bortezomib; 20S proteasome inhibitor), 200 nM final concentration in 1×PBS) or with the drugs (200 nM final concentration) and 2-PMPA (5 μM final concentration). After overnight incubation, cell viability was assessed fluorimetrically with the Alamar blue method (Invitrogen), according to the supplier's protocol.
For orientation: Alamar Blue is a resazurin reagent that responds to reducing activity.

Consider `O=C(O)CCC(CP(=O)(O)O)C(=O)O` (stereo not shown) [2-PMPA], for which the values for the CAMKK2 phosphorylation result in series [1] (PSMA-expressing cells) and in series [1] (cells lacking PSMA) were “decreased CAMKK2's phosphorylation” and “no effect”, respectively. In series [1] (PSMA-positive cells, FIG. 3c), the “phosphorylation of AMPKα” value is given as “impaired”. For the same molecule, the “phosphorylation of AKT” value in series [1] (PSMA-positive cells, FIG. 3d) was “impaired”. In addition, in series [2], the “tumor size and growth” value was “smaller tumors that grew slowly”. In addition, the tumor initiation entry in series [2] (FIG. 9a) is given as “did not affect tumor initiation”. In series [2] (FIG. 9b), the animal survival entry is given as “extended the animals survival”. In addition, in series [3], the “phosphorylation of many proteins including TOR, p27, and Src” value is recorded as “decreased”. Further, the “effect of 2-PMPA on toxicity of chemotherapeutics (cell viability)” value in series [4] (PSMA-expressing cells, drugs 200 nM plus 2-PMPA 5 μM, overnight, FIG. 7a-d) is reported as “enhanced the toxicity of all chemotherapeutics”. The “cytotoxic effect of the inhibitor alone” value in series [4] (for the study's time-course) was “no cytotoxic effect”.

Source of the values: US20170252433A1, “PSMA-RELATED THERAPIES” (Memorial Sloan Kettering Cancer Center, priority 2014, published 2017).
